Assay results as given in PubChem BioAssay (NCI).
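Step 1: Grow cells in 96-well plates. Step 2: Expose to compound for 48 hours at 5 concentrations. Step 3: Interpolate endpoints linearly; if unreached, use highest concentration. GI50 marks 50% less growth. TGI: total growth inhibition.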

Legend:
Assay in all cases: NCI anticancer screen, dose series, 48 h
[1] = tested on: HCT-15 colon
[2] = tested on: MDA-MB-231 breast
[3] = tested on: SK-MEL-28 melanoma
[4] = tested on: HS 578T breast
[5] = tested on: SN12C renal
[6] = tested on: U251 CNS
[7] = tested on: T-47D breast
[8] = tested on: EKVX NSCLC
[9] = tested on: ACHN renal
[10] = tested on: CAKI-1 renal
[11] = tested on: MDA-MB-435
[12] = tested on: NCI/ADR-RES ovarian
[13] = tested on: RXF 393 renal
[14] = tested on: OVCAR-8 ovarian
[15] = tested on: HCT-116 colon
[16] = tested on: HOP-62 NSCLC
[17] = tested on: BT-549 breast
[18] = tested on: M14 melanoma
[19] = tested on: SK-MEL-5 melanoma
[20] = tested on: NCI-H23 lung
[21] = tested on: HT29 colon
[22] = tested on: PC-3 prostate
[23] = tested on: K-562 leukemia
[24] = tested on: CCRF-CEM leukemia
[25] = tested on: SK-OV-3 ovarian
[26] = tested on: HOP-92 NSCLC
[27] = tested on: SF-268 CNS
[28] = tested on: SF-295 CNS
[29] = tested on: UACC-257 melanoma
[30] = tested on: 786-0 renal
[31] = tested on: SR leukemia
[32] = tested on: A549 NSCLC
[33] = tested on: SW-620 colon
[34] = tested on: UACC-62 melanoma
[35] = tested on: SNB-19 CNS
[36] = tested on: COLO 205 colon
[37] = tested on: HCC-2998 colon
[38] = tested on: MOLT-4 leukemia
[39] = tested on: KM12 colon
[40] = tested on: SF-539 CNS
[41] = tested on: TK-10 renal
[42] = tested on: LOX IMVI melanoma
[43] = tested on: NCI-H460 lung
[44] = tested on: OVCAR-3 ovarian
[45] = tested on: MCF7 breast
[46] = tested on: DU-145 prostate
[47] = tested on: OVCAR-4 ovarian
[48] = tested on: RPMI-8226 leukemia
[49] = tested on: OVCAR-5 ovarian
[50] = tested on: A498 renal
[51] = tested on: UO-31 renal
[52] = tested on: SNB-75 CNS
[53] = tested on: NCI-H226 lung
[54] = tested on: IGROV1 ovarian
[55] = tested on: HL-60(TB) leukemia
[56] = tested on: SK-MEL-2 melanoma

CC(=O)OCC1OC(OC2CCCC[Si](c3ccccc3)(c3ccccc3)O2)C(OC(C)=O)C(OC(C)=O)C1OC(C)=O (configuration not stated)
GI50 [1]: > 100 µM
TGI [1]: > 100 µM
GI50 [2]: > 100 µM
TGI [2]: > 100 µM
GI50 [3]: > 100 µM
TGI [3]: > 100 µM
GI50 [4]: > 100 µM
TGI [4]: > 100 µM
GI50 [5]: > 100 µM
TGI [5]: > 100 µM
GI50 [6]: > 100 µM
TGI [6]: > 100 µM
GI50 [7]: > 100 µM
TGI [7]: > 100 µM
GI50 [8]: > 100 µM
TGI [8]: > 100 µM
GI50 [9]: > 100 µM
TGI [9]: > 100 µM
GI50 [10]: 38.9 µM
TGI [10]: > 100 µM
GI50 [11]: 51 µM
TGI [11]: > 100 µM
GI50 [12]: > 100 µM
TGI [12]: > 100 µM
GI50 [13]: > 100 µM
TGI [13]: > 100 µM
GI50 [14]: > 100 µM
TGI [14]: > 100 µM
GI50 [15]: 24.5 µM
TGI [15]: 59.2 µM
GI50 [16]: > 100 µM
TGI [16]: > 100 µM
GI50 [17]: > 100 µM
TGI [17]: > 100 µM
GI50 [18]: > 100 µM
TGI [18]: > 100 µM
GI50 [19]: > 100 µM
TGI [19]: > 100 µM
GI50 [20]: > 100 µM
TGI [20]: > 100 µM
GI50 [21]: > 100 µM
TGI [21]: > 100 µM
GI50 [22]: > 100 µM
TGI [22]: > 100 µM
GI50 [23]: 56.1 µM
TGI [23]: > 100 µM
GI50 [24]: 35.5 µM
TGI [24]: > 100 µM
GI50 [25]: > 100 µM
TGI [25]: > 100 µM
GI50 [26]: > 100 µM
TGI [26]: > 100 µM
GI50 [27]: > 100 µM
TGI [27]: > 100 µM
GI50 [28]: > 100 µM
TGI [28]: > 100 µM
GI50 [29]: > 100 µM
TGI [29]: > 100 µM
GI50 [30]: > 100 µM
TGI [30]: > 100 µM
GI50 [31]: 73.6 µM
TGI [31]: > 100 µM
GI50 [32]: > 100 µM
TGI [32]: > 100 µM
GI50 [33]: 53 µM
TGI [33]: > 100 µM
GI50 [34]: > 100 µM
TGI [34]: > 100 µM
GI50 [35]: > 100 µM
TGI [35]: > 100 µM
GI50 [36]: > 100 µM
TGI [36]: > 100 µM
GI50 [37]: > 100 µM
TGI [37]: > 100 µM
GI50 [38]: 10.3 µM
TGI [38]: > 100 µM
GI50 [39]: > 100 µM
TGI [39]: > 100 µM
GI50 [40]: 29.2 µM
TGI [40]: 79.1 µM
GI50 [41]: > 100 µM
TGI [41]: > 100 µM
GI50 [42]: 53.6 µM
TGI [42]: > 100 µM
GI50 [43]: > 100 µM
TGI [43]: > 100 µM
GI50 [44]: 13.3 µM
TGI [44]: 69.5 µM
GI50 [45]: 69.2 µM
TGI [45]: > 100 µM
GI50 [46]: > 100 µM
TGI [46]: > 100 µM
GI50 [47]: > 100 µM
TGI [47]: > 100 µM
GI50 [48]: 32.6 µM
TGI [48]: > 100 µM
GI50 [49]: > 100 µM
TGI [49]: > 100 µM
GI50 [50]: > 100 µM
TGI [50]: > 100 µM

Cc1cccc(NC(=S)Nc2ccc(Cl)cc2)n1
TGI [1]: > 100 µM
TGI [2]: > 100 µM
TGI [3]: > 100 µM
TGI [4]: > 100 µM
TGI [6]: > 100 µM
TGI [7]: > 100 µM
TGI [8]: > 100 µM
TGI [51]: > 100 µM
TGI [9]: > 100 µM
TGI [10]: > 100 µM
TGI [11]: > 100 µM
TGI [12]: > 100 µM
TGI [13]: > 100 µM
TGI [14]: > 100 µM
TGI [15]: > 100 µM
TGI [16]: > 100 µM
TGI [17]: > 100 µM
TGI [18]: > 100 µM
TGI [19]: > 100 µM
TGI [20]: > 100 µM
TGI [21]: > 100 µM
TGI [52]: > 100 µM
TGI [22]: > 100 µM
TGI [23]: > 100 µM
TGI [24]: > 100 µM
TGI [53]: > 100 µM
TGI [25]: > 100 µM
TGI [26]: > 100 µM
TGI [27]: > 100 µM
TGI [54]: > 100 µM
TGI [28]: > 100 µM
TGI [29]: > 100 µM
TGI [30]: > 100 µM
TGI [31]: > 100 µM
TGI [33]: > 100 µM
TGI [34]: > 100 µM
TGI [55]: > 100 µM
TGI [35]: > 100 µM
TGI [56]: > 100 µM
TGI [36]: > 100 µM
TGI [37]: > 100 µM
TGI [38]: > 100 µM
TGI [39]: > 100 µM
TGI [40]: > 100 µM
TGI [41]: > 100 µM
TGI [42]: > 100 µM
TGI [43]: > 100 µM
TGI [45]: > 100 µM
TGI [46]: > 100 µM
TGI [47]: > 100 µM
TGI [48]: > 100 µM
TGI [50]: > 100 µM
